Measured values from article PMC6720883, “In Vitro Inhibitory Effects of APINACA on Human Major Cytochrome P450, UDP-Glucuronosyltransferase Enzymes, and Drug Transporters” (Molecules, 2019).
Read-outs that look alike come from different tables or passages of the source.

Key:
[1] = target: UGT1A4 (Homo sapiens, UniProt P22310); experiment: Inhibition of UGT1A4-catalyzed trifluoperazine N-glucuronidation in human liver microsomes
Description: The inhibitory effect of APINACA and typical UGT inhibitors on UGT1A1, UGT1A3, UGT1A4, UGT1A6, UGT1A9, and UGT2B7 were evaluated following our previous method by LC–MS/MS after incubation of ultrapooled human liver microsomes with a cocktail of UGT substrates. […] The reactions were initiated by adding UDPGA, and the incubation continued for 60 min at 37 °C in a shaking water bath. The reactions were terminated by adding 50 μL of ice-cold acetonitrile containing internal standards (propofol glucuronide for chenodeoxycholic acid 24-acyl-β-glucuronide and mycophenolic acid glucuronide; and meloxicam for SN-38 glucuronide, trifluoperazine glucuronide, N-acetylserotonin β-D-glucuronide, and naloxone 3-β-D-glucuronide). The incubation mixtures were centrifuged at 13,000× g for 8 min at 4 °C. Next, 50 μL of each supernatant of A and B set was mixed, and aliquots (5 μL) were analyzed by LC–MS/MS. All assays were performed in triplicate, and the average values were used in calculations.
To measure the time-dependent inhibition, human liver microsomes were preincubated with the various concentrations of APINACA (final concentrations of 0.1–100 μM) and UDPGA for 30 min at 37 °C. Next, the reaction mixtures were incubated with UGT probe substrate cocktail sets for 60 min at 37 °C. The control reaction was performed by adding methanol instead of the test compounds.
(§1) 1.1 (Systat Software, Inc.).

[2] = target: OATP1B3 (Homo sapiens, UniProt Q9NPD5)
[3] = target: P-glycoprotein (P-gp) (Homo sapiens, UniProt P08183); experiment: B to A transport of [3-H]digoxin in LLC-PK1-MDR1 cells
Description: The cells were seeded onto filter membranes at a density of 2 × 10^5 cells/well for 5 days with TEER values over 450 Ω·cm^2. The B to A transport of 0.1 μM [3-H]digoxin in LLC-PK1-MDR1 cells was measured by adding 1.5 mL of HBSS containing APINACA (final concentrations of 0–100 μM) on the basal side and by adding 0.5 mL of HBSS without APINACA on the apical side of the insert using protocols identical to those described above.
as §1

[4] = target: CYP3A4 (Homo sapiens, UniProt P08684); experiment: Time-dependent inhibition kinetics of CYP3A4 midazolam 1′-hydroxylation in human liver microsomes; assay type: in vitro ADME
Description: The kinetic parameters for the time-dependent inhibition potency of APINACA against human liver microsomal CYP3A4 activity were evaluated. Ultrapooled human liver microsomes (1 mg/mL) were preincubated with various concentrations of APINACA (final concentrations of 1–40 μM) in 50 mM potassium phosphate buffer (pH 7.4) in the presence of NADPH. Aliquots (10 μL) of the preincubated mixtures were withdrawn 5, 10, 20, and 30 min after incubation was commenced and were added to other tubes containing 2 μM midazolam, 1 mM NADPH, 50 mM potassium phosphate buffer (pH 7.4), and 10 mM MgCl2 in 90-μL reaction mixtures. The second reactions were terminated after 10 min by adding 100 μL of ice cold methanol containing d9-1′-hydroxybufuralol. […] Aliquots (5 μL) of the diluted supernatants were analyzed by LC–MS/MS.
(§2) 12.5 (Systat Software, Inc.; San Jose, CA, USA). […] 1.1 (Systat Software, Inc.).

[5] = target: CYP2C8 (Homo sapiens, UniProt P10632); experiment: Inhibition of CYP2C8-catalyzed amodiaquine N-deethylase in ultrapooled human liver microsomes; assay type: in vitro ADME
Description: The inhibitory potentials (IC50 values) of APINACA and typical CYP inhibitors on CYP 1A2, 2A6, 2C8, 2C9, 2C19, 2D6, and 3A4 activities in pooled human liver microsomes were evaluated following our previous method using a cocktail of CYP substrates, followed by LC–MS/MS [43]. […] After 3 min of preincubation at 37 °C, the reaction mixtures were incubated for 15 min at 37 °C with the addition of NADPH in a shaking water bath. The reaction was stopped by adding 100 μL of ice cold methanol containing internal standards (d9-1′-hydroxybufuralol for 1′-hydroxybufuralol, 4′-hydroxydiclofenac, 7-hydroxycoumarin, 1′-hydroxymidazolam, and 4′-hydroxymephenytoin; ^13C2, ^15N-acetaminophen for acetaminophen and N-desethylamodiaquine). The incubation mixtures were centrifuged at 13,000× g for 8 min at 4 °C, and 50 μL of each supernatant was diluted with 50 μL of water. Aliquots (5 μL) of the diluted supernatants were analyzed by LC–MS/MS. All assays were performed in triplicate, and the average values were used for subsequent calculations.
To measure the time-dependent inhibition, human liver microsomes were preincubated with the various concentrations of APINACA (final concentrations of 0.1−100 μM) and NADPH for 30 min at 37 °C. Next, the reaction mixtures were incubated with a seven-CYP probe substrate cocktail or bupropion for 15 min at 37 °C. […]

[6] = target: CYP2B6 (Homo sapiens, UniProt P20813); experiment: Inhibition of CYP2B6-mediated bupropion hydroxylase in ultrapooled human liver microsomes; assay type: in vitro ADME
Description: After 3 min of preincubation at 37 °C, the reaction mixtures were incubated with the addition of NADPH in a shaking water bath for 15 min at 37 °C. The reaction was stopped by adding 100 μL of ice cold d9-1′-hydroxybufuralol (internal standard) in methanol.
Next, the reaction mixtures were incubated with a seven-CYP probe substrate cocktail or bupropion for 15 min at 37 °C.
The LC-MS/MS system was comprised of an Agilent 6495 triple quadrupole mass spectrometer coupled with an Agilent 1290 Infinity system (Agilent Technologies, CA, USA). The column and autosampler temperatures were 40 °C and 4 °C, respectively.
The data were processed using Mass Hunter software (Agilent Technologies).
as §2

Chain of CYP3A4 (P08684 2-503): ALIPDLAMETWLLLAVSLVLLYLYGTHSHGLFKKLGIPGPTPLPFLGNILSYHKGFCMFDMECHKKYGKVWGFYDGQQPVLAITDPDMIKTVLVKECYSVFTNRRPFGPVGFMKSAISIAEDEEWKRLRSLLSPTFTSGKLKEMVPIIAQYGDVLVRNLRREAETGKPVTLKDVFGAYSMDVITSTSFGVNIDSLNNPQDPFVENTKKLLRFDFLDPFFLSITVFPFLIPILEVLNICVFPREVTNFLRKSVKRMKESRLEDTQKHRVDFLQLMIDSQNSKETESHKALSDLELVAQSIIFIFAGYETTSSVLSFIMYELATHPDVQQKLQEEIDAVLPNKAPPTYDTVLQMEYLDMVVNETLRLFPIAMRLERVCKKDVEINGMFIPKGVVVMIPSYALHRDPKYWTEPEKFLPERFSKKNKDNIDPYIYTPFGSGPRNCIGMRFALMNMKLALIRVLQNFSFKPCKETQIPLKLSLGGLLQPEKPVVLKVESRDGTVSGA
Chain of CYP2B6 (P20813 whole entry): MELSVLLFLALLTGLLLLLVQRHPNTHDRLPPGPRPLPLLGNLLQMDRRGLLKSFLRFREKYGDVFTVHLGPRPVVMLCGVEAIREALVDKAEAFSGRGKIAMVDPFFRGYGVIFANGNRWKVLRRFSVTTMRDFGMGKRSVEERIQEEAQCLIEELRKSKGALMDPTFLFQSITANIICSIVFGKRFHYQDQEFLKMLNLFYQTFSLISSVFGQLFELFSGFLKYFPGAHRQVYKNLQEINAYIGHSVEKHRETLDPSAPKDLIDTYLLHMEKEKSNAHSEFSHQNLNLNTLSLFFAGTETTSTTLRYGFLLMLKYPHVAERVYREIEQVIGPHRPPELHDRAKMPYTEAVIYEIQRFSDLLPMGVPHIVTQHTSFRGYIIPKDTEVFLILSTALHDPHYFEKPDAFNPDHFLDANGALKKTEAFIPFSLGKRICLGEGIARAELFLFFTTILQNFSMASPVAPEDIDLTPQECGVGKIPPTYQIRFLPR
Chain of UGT1A4 (P22310 29-534): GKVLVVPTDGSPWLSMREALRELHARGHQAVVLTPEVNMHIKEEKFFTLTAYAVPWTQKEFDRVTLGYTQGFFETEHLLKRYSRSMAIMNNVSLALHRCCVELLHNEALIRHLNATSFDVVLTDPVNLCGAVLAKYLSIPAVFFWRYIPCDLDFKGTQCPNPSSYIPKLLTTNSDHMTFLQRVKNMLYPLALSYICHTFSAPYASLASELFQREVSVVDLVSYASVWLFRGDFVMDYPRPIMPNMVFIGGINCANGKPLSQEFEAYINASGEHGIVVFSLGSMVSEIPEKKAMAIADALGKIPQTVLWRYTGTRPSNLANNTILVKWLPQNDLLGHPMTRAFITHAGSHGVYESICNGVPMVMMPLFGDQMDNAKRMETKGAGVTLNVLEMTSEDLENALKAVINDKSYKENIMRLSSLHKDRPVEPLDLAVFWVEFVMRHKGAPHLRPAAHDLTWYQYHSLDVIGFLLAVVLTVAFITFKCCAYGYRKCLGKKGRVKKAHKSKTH
Chain of CYP2C8 (P10632 whole entry): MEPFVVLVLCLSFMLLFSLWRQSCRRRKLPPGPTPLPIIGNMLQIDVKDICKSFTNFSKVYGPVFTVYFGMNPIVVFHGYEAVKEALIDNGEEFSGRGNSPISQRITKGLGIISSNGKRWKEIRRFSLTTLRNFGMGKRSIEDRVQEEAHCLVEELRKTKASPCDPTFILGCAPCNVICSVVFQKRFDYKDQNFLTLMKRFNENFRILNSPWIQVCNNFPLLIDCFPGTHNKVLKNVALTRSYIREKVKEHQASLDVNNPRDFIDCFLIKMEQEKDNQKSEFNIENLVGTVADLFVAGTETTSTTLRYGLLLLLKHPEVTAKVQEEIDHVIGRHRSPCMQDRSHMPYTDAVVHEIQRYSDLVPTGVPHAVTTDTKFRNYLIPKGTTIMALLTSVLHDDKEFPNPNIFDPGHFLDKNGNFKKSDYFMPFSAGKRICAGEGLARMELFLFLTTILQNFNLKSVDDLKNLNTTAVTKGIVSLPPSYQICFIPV
Chain of P-glycoprotein (P-gp) (P08183 whole entry): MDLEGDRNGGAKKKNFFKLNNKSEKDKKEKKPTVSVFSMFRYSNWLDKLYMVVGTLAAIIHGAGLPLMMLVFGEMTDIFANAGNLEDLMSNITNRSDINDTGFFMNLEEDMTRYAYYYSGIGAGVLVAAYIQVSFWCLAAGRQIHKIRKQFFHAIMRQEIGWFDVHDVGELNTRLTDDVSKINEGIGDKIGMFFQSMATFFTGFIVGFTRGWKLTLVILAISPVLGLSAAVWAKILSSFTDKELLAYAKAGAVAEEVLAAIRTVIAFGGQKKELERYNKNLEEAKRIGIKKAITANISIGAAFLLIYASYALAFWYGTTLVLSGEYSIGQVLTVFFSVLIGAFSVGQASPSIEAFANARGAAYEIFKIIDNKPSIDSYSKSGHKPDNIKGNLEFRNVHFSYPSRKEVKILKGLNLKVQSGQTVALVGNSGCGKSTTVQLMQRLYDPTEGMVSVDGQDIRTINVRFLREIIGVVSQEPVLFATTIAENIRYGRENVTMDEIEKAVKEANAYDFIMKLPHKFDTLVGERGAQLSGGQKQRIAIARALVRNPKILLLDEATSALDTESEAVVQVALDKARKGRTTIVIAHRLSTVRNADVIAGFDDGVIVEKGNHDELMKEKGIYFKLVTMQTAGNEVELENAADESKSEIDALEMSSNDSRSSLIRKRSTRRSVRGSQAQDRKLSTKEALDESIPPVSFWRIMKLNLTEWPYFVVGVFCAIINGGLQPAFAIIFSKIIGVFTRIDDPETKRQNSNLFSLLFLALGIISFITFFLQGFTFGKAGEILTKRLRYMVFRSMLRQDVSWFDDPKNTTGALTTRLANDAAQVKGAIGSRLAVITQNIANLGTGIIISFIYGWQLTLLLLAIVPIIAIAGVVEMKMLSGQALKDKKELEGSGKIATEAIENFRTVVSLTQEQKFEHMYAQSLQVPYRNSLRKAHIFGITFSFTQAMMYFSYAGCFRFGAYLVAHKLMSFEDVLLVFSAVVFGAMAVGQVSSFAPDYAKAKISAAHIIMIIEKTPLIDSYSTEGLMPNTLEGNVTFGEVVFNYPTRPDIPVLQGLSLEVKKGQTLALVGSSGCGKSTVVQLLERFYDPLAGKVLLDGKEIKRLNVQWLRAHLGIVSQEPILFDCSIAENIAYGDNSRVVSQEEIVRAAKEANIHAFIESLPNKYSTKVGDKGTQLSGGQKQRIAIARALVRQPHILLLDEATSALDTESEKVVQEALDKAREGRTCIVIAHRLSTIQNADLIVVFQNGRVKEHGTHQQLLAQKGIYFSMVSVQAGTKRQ
Chain of OATP1B3 (Q9NPD5 whole entry): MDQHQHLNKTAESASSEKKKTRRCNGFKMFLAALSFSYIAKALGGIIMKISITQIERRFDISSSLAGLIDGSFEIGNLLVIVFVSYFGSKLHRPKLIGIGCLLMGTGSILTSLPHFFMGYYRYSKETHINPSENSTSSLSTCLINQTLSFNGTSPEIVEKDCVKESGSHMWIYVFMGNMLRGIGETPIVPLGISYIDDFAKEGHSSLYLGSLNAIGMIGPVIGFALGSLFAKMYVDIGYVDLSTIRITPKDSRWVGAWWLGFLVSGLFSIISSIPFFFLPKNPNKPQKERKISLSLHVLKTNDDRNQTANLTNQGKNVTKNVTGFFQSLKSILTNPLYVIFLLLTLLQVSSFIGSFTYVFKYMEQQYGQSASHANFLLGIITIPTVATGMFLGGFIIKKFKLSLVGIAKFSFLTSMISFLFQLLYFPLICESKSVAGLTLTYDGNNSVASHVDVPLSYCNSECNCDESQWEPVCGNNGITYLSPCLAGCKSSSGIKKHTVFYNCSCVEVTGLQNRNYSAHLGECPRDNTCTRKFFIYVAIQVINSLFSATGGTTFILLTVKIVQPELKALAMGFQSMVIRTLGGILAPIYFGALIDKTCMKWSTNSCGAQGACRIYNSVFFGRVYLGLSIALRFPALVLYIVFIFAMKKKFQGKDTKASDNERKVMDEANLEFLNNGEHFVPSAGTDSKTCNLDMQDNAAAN

`CCCCCn1nc(C(=O)NC23CC4CC(CC(C4)C2)C3)c2ccccc21` [APINACA, N-(1-adamantyl)-1-pentyl-1H-indazole-3-carboxamide] showed an IC50 [1] greater than 100 µM, an IC50 ([1]; read-out: IC50 UGT1A4 trifluoperazine N-glucuronidation, with 30-min preincubation, pooled human liver microsomes, 30-min preincubation with UDPGA (○)) greater than 100 µM and an IC50 [2] greater than 250 µM. The IC50 [3] was greater than 100 µM, the “inactivation efficiency (kinact/Ki) for time-dependent inhibition of CYP3A4” value ([4]; human liver microsomes) was 10.4 mL/µmol/min and the kinact ([4]; pH 7.4, probe midazolam 2 μM (1′-hydroxylation), ultrapooled human liver microsomes, time-dependent inhibition, read-out: kinact for time-dependent inhibition of CYP3A4-catalyzed midazolam 1′-hydroxylase (converted)) was 0.000781 s⁻¹. For the same molecule, the IC50 [5] was greater than 100 µM, the IC50 ([5]; read-out: IC50 (μM) With Preincubation, CYP2C8 amodiaquine N-deethylase, ultrapooled human liver microsomes, 30-min preincubation with NADPH) was greater than 100 µM and the IC50 [6] was greater than 100 µM. It also gave an IC50 ([6]; read-out: IC50 (μM) With Preincubation, CYP2B6 bupropion hydroxylase, ultrapooled human liver microsomes, 30-min preincubation with NADPH) greater than 100 µM.
